Test results reported in ChEMBL document CHEMBL5661983, “The selective anaplastic lymphoma receptor tyrosine kinase inhibitor ASP3026 induces tumor regression and prolongs survival in non-small cell lung cancer model mice” (Mol Cancer Ther, 2014).
Calls of active or inactive are those of the source. No cut-off for these calls is given here.

What was measured:
in vivo = settings: NOD.CB17-Prkdcscid/J, mouse, tumour, po, 10 mg/kg
[1] = AUC (0 to 24 hrs) in human NCI-H2228 cell xenografted NOD.CB17-Prkdcscid/J mouse tumor at 10 mg/kg/day for 5 days by HPLC-MS analysis; type: ADME, organism-based, Neoplasm; settings: in vivo, po, 120 h, time 5 day
[2] = target: High affinity nerve growth factor receptor (Homo sapiens, UniProt P04629)
High affinity nerve growth factor receptor, sequence (P04629 whole entry): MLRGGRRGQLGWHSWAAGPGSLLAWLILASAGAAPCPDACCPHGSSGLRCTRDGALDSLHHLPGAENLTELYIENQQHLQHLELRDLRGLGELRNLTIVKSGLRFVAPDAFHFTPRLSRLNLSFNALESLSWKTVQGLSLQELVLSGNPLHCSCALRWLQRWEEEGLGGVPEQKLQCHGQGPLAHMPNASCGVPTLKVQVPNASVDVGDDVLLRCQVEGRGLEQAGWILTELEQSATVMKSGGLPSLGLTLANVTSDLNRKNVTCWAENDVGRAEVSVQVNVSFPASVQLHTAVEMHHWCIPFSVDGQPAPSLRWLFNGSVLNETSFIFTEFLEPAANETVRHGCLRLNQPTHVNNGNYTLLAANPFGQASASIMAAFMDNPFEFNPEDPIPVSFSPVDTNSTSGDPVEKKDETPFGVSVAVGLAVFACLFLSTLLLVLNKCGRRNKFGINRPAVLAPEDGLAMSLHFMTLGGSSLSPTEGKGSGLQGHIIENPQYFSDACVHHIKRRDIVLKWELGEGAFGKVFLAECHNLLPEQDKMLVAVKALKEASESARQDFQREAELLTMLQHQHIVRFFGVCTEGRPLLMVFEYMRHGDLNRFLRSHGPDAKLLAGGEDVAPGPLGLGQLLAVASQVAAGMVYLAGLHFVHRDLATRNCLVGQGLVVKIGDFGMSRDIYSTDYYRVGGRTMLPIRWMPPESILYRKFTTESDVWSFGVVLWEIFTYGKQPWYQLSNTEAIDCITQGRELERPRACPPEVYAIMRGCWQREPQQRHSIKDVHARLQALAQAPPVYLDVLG

Activated CDC42 kinase 1 = Activated CDC42 kinase 1 (Homo sapiens, UniProt Q07912)
[3] = In vivo inhibition of ALK autophosphorylation in human NCI-H2228 cell xenografted NOD.CB17-Prkdcscid/J mouse assessed as phosphorylated ALK level at 10 mg/kg, po administered as single dose measured after 4 hrs by immunoblotting method relative to control; type: functional; design: scale not given: the % may be the effect or the level left
[4] = target: T1, ALK tyrosine kinase receptor (Homo sapiens, UniProt Q9UM73); test: Inhibition of ALK phosphorylation in human NCI-H2228 cells assessed as phosphorylated ALK level at 10 nmol/L measured after 4 hrs by Western blot analysis relative to control; type: cell-based; design: scale not given: the % may be the effect or the level left
T1 sequence (Q9UM73 19-1620 limits assumed): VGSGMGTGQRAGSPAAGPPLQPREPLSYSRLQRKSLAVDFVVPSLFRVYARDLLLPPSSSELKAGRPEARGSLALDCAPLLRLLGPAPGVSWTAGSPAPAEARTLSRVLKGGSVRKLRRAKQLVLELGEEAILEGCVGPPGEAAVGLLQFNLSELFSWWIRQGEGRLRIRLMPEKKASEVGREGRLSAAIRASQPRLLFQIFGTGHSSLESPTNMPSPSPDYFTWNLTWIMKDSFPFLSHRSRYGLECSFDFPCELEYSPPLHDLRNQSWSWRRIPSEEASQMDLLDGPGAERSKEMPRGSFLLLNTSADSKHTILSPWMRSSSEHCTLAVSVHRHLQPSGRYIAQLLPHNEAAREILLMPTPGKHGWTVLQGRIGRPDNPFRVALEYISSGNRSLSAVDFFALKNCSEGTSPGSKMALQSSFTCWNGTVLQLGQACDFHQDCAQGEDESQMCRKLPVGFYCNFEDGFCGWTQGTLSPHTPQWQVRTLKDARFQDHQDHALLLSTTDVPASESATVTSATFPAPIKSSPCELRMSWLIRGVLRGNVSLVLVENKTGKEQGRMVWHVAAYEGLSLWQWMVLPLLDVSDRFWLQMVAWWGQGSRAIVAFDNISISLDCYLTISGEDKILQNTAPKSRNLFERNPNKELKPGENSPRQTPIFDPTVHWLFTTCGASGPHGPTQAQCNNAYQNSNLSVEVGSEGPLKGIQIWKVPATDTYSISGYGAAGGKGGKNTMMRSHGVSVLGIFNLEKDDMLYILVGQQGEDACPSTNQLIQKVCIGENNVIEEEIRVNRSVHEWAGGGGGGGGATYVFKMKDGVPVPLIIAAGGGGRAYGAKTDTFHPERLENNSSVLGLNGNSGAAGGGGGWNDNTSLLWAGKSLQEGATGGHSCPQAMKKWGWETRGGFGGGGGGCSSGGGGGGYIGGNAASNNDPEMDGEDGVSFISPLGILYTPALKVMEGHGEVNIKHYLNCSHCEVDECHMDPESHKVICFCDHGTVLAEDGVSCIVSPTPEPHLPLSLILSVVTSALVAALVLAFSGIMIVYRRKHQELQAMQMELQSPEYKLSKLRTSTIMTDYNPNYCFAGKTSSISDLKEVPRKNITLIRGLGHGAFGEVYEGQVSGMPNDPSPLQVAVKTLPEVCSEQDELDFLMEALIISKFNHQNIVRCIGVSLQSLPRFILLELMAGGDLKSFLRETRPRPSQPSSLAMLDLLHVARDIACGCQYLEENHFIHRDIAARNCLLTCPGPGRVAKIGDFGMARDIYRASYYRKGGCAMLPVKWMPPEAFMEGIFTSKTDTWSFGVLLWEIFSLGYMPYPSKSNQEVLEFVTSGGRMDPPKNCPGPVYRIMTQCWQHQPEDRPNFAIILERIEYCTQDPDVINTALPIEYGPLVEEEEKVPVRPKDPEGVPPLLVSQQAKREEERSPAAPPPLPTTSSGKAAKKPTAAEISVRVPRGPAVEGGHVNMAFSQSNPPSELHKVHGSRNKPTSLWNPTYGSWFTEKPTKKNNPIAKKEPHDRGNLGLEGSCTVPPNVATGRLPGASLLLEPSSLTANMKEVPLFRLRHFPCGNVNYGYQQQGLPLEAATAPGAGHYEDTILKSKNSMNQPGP

[5] = target: T1, ALK tyrosine kinase receptor; test: Inhibition of ALK in human NCI-H2228 cells assessed as reduction in ERK phosphorylation by measuring phosphorylated ERK level at 1000 nmol/L measured after 4 hrs by Western blot analysis relative to control; type: cell-based; design: scale not given: the % may be the effect or the level left
NCI-H2228-Luc = test: Antitumor activity against human NCI-H2228-Luc cells intrahepatically xenografted in NOD.CB17-Prkdcscid/J mouse assessed as reduction in tumor burden by measuring bioluminescence emission at 30 mg/kg, po administered once daily for 3 weeks starting from 14 days post-cell inoculation and measured on day 19 by bioluminescent imaging analysis (reference value: 3.3 x 10^8 photon/sec); type: functional; settings: time 19 day
[6] = target: T1, ALK tyrosine kinase receptor; test: Inhibition of ALK in human NCI-H2228 cells assessed as reduction in STAT3 phosphorylation by measuring phosphorylated STAT3 level at 10 nmol/L measured after 4 hrs by Western blot analysis relative to control; type: cell-based; design: scale not given: the % may be the effect or the level left
[7] = target: Tyrosine-protein kinase receptor TYRO3 (Homo sapiens, UniProt Q06418)
[8] = Tmax in human NCI-H2228 cell xenografted NOD.CB17-Prkdcscid/J mouse plasma at 3 mg/kg/day for 5 days by HPLC-MS analysis; type: ADME, organism-based; settings: route po, time 5 day
Mus musculus = test: Antitumor activity against hEML4-ALK transgenic C57BL/6J mouse assessed as reduction in pulmonary tumor size at 30 to 100 mg/kg, po administered daily for 10 days and measured on day 7 and 11 by computed tomography scan analysis; type: functional, organism-based; settings: dose 30-100 mg/kg, time 7-11 day
[9] = target: T1, ALK tyrosine kinase receptor; test: Inhibition of ALK phosphorylation in human NCI-H2228 cells assessed as phosphorylated ALK level at 1000 nmol/L measured after 4 hrs by Western blot analysis relative to control; type: cell-based; design: scale not given: the % may be the effect or the level left
Ephrin type-A receptor 6 = Ephrin type-A receptor 6 (Homo sapiens, UniProt Q9UF33)
[10] = Cmax in human NCI-H2228 cell xenografted NOD.CB17-Prkdcscid/J mouse tumor at 3 mg/kg/day for 5 days by HPLC-MS analysis; type: ADME, organism-based, Neoplasm; settings: route po, time 5 day
[11] = target: Tyrosine-protein kinase Mer (Homo sapiens, UniProt Q12866)
[12] = target: NPM/ALK (Nucleophosmin/ALK tyrosine kinase receptor) (Homo sapiens, UniProt Q9UM73)
[13] = Tmax in human NCI-H2228 cell xenografted NOD.CB17-Prkdcscid/J mouse plasma at 1 mg/kg/day for 5 days by HPLC-MS analysis; type: ADME, organism-based; settings: route po, time 5 day
[14] = Cmax in human NCI-H2228 cell xenografted NOD.CB17-Prkdcscid/J mouse tumor at 1 mg/kg/day for 5 days by HPLC-MS analysis; type: ADME, organism-based, Neoplasm; settings: route po, time 5 day
[15] = target: Macrophage-stimulating protein receptor (Homo sapiens, UniProt Q04912)
[16] = AUC (0 to 24 hrs) in human NCI-H2228 cell xenografted NOD.CB17-Prkdcscid/J mouse plasma at 3 mg/kg/day for 5 days by HPLC-MS analysis; type: ADME, organism-based; settings: route po, time 5 day
[17] = target: T1, ALK tyrosine kinase receptor; test: Inhibition of ALK in human NCI-H2228 cells assessed as reduction in ERK phosphorylation by measuring phosphorylated ERK level at 10 nmol/L measured after 4 hrs by Western blot analysis relative to control; type: cell-based; design: scale not given: the % may be the effect or the level left
[18] = target: Tyrosine-protein kinase FRK (Homo sapiens, UniProt P42685)
Tyrosine-protein kinase FRK, sequence (P42685 whole entry): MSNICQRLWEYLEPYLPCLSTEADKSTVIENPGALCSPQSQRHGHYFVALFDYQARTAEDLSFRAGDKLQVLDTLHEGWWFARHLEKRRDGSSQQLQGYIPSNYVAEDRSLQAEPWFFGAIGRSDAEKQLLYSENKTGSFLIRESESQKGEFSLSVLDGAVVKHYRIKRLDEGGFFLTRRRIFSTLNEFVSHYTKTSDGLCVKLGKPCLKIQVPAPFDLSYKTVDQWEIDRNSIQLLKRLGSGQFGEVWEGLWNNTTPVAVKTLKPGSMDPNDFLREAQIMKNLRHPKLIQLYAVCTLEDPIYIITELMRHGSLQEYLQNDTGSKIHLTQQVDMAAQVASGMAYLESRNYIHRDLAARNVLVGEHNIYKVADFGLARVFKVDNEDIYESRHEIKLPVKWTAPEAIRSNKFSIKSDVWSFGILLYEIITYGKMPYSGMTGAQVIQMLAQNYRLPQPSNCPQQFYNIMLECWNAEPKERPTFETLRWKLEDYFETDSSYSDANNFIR

Ephrin type-B receptor 4 = Ephrin type-B receptor 4 (Homo sapiens, UniProt P54760)
Ephrin type-B receptor 4, sequence (P54760 whole entry): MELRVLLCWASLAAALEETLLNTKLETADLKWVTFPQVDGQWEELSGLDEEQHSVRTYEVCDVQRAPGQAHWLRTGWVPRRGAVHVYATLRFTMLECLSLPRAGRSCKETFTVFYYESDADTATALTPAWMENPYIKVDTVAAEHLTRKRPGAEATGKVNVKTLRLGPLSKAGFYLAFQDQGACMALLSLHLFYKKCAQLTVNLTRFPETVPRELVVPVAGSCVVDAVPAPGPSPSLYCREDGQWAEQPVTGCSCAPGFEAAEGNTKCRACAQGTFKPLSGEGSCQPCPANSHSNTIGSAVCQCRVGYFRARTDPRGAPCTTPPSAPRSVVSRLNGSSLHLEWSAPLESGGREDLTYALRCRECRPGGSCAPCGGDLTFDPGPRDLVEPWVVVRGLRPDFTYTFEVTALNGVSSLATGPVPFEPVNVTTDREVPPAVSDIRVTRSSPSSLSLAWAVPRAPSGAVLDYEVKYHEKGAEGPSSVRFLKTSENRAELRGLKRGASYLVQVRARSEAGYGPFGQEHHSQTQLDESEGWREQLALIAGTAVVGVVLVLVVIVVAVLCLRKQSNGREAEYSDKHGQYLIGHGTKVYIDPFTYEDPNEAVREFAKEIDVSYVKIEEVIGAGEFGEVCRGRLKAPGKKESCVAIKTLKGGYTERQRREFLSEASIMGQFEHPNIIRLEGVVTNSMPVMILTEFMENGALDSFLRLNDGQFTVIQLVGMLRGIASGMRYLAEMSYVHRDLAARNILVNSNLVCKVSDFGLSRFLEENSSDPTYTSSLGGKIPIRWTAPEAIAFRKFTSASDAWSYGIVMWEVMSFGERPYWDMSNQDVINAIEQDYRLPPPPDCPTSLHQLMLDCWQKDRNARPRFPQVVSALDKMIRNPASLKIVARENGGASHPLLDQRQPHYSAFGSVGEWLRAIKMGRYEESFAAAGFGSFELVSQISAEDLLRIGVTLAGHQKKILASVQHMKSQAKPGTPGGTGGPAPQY

[19] = target: T1, ALK tyrosine kinase receptor; test: Inhibition of ALK in human NCI-H2228 cells assessed as reduction in AKT phosphorylation by measuring phosphorylated AKT level at 1000 nmol/L measured after 4 hrs by Western blot analysis relative to control; type: cell-based; design: scale not given: the % may be the effect or the level left
[20] = Cmax in human NCI-H2228 cell xenografted NOD.CB17-Prkdcscid/J mouse plasma at 10 mg/kg/day for 5 days by HPLC-MS analysis; type: ADME, organism-based; settings: route po, time 5 day
[21] = Cmax in human NCI-H2228 cell xenografted NOD.CB17-Prkdcscid/J mouse tumor at 10 mg/kg/day for 5 days by HPLC-MS analysis; type: ADME, organism-based, Neoplasm; settings: route po, time 5 day
[22] = Ratio of drug level in tumor to plasma of hEML4-ALK transgenic C57BL/6J mouse at 10 to 100 mg/kg, po administered daily for 10 days and measured 24 hrs post-last dose; type: ADME, organism-based; settings: dose 10-100 mg/kg, time 11 day
[23] = target: Tyrosine-protein kinase receptor UFO (Homo sapiens, UniProt P30530)
Tyrosine-protein kinase receptor UFO, sequence (P30530 whole entry): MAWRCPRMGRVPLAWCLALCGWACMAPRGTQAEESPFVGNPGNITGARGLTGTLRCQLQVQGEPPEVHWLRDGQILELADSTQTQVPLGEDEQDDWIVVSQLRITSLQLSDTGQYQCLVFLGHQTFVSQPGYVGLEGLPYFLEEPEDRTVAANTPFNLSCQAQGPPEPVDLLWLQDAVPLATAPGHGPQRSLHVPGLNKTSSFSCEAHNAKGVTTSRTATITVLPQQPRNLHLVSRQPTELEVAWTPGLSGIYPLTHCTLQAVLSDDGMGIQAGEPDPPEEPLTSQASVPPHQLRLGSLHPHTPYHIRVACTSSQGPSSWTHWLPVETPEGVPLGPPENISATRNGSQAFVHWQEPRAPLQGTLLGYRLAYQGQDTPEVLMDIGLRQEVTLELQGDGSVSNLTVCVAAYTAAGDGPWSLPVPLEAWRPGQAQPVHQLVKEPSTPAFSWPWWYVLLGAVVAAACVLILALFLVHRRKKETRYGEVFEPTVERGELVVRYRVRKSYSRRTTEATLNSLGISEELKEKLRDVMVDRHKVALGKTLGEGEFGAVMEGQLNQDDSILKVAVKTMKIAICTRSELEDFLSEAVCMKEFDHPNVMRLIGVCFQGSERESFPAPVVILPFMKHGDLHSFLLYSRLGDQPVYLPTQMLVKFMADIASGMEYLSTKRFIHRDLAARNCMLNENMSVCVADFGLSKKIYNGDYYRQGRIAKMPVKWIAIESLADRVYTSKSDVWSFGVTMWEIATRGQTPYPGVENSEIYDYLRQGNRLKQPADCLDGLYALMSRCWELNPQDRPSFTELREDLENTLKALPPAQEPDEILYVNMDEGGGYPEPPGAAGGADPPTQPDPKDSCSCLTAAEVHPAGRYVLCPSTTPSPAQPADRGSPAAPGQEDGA

[24] = Ratio of Cmax in human NCI-H2228 cell xenografted NOD.CB17-Prkdcscid/J mouse tumor to plasma at 1 mg/kg/day for 5 days by HPLC-MS analysis; type: ADME, organism-based; settings: tumor and plasma, route po, time 5 day
[25] = target: Non-receptor tyrosine-protein kinase TNK1 (Homo sapiens, UniProt Q13470)
[26] = target: T1, ALK tyrosine kinase receptor; test: Inhibition of ALK in human NCI-H2228 cells assessed as reduction in STAT3 phosphorylation by measuring phosphorylated STAT3 level at 1000 nmol/L measured after 4 hrs by Western blot analysis relative to control; type: cell-based; design: scale not given: the % may be the effect or the level left
[27] = Tmax in human NCI-H2228 cell xenografted NOD.CB17-Prkdcscid/J mouse tumor at 3 mg/kg/day for 5 days by HPLC-MS analysis; type: ADME, organism-based, Neoplasm; settings: route po, time 5 day
NCI-H2228 [28] = test: Antitumor activity against human NCI-H2228 cells xenografted in NOD.CB17-Prkdcscid/J mouse assessed as tumor growth inhibition at 3 mg/kg, po administered once daily for 2 weeks relative to control; type: functional; settings: NCI-H2228, 336 h, read-out: TGI
NCI-H2228 [29] = test: Antitumor activity against human NCI-H2228 cells xenografted in NOD.CB17-Prkdcscid/J mouse assessed as tumor regression at 10 mg/kg, po administered once daily for 2 weeks relative to control; type: functional

Compound `COc1cc(N2CCC(N3CCN(C)CC3)CC2)ccc1Nc1ncnc(Nc2ccccc2S(=O)(=O)C(C)C)n1` [ASP-3026] has a Kp at 120 h (in vivo) of 20, an AUC [1] of 121000 ng·h/g and an IC50 [2] greater than 1000 nM. It also gave an IC50 (Activated CDC42 kinase 1) of 5.8 nM, an Activity [3] of roughly 20% and an Activity [4] of 70%. For the same compound, the Activity [5] was 36%, the Activity (NCI-H2228-Luc) was 7.7 10^6No_unit and the Activity [6] was 88%. The IC50 [7] was greater than 1000 nM, the Tmax [8] was 4 h and the Activity (Mus musculus) was “Active”. For the same compound, the Activity [9] was 9%, the IC50 (Ephrin type-A receptor 6) was greater than 1000 nM and the Cmax [10] was 2270 ng/g. It also gave an IC50 [11] greater than 1000 nM, an IC50 [12] of 6.8 nM and a Tmax [13] of 4 h. It also gave a Cmax [14] of 850 ng/g, an IC50 [15] greater than 1000 nM and an AUC at 120 h [16] of 1820 ng·h/mL. For the same compound, the Activity [17] was 101%, the IC50 [18] was 40 nM and the IC50 (Ephrin type-B receptor 4) was greater than 1000 nM. For the same compound, the Activity [19] was 20%, the Cmax [20] was 508 ng/mL and the Cmax [21] was 8990 ng/g. The Kp at 264 h [22] was greater than 100, the IC50 [23] was greater than 100 nM and the Kp at 120 h [24] was 19. For the same compound, the IC50 [25] was 26.8 nM, the Activity [26] was 46% and the Tmax [27] was 4 h. It also gave an inhibition in vivo at 3 mg/kg (NCI-H2228 [28]) greater than 100% and an Activity (NCI-H2228 [29]) of 45%.
